Molecules are shown by their SMILES.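 Test compounds were applied to cells in 96-well plates for 48 hours at 5 doses. Abbreviation: GI50, concentration required for 50% inhibition of growth. TGI: concentration producing complete growth inhibition.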

Test systems include SNB-75 CNS; M14 melanoma; NCI-H23 lung; RXF 393 renal; MDA-MB-231 breast; SNB-19 CNS; SF-539 CNS; OVCAR-4 ovarian; OVCAR-5 ovarian; SW-620 colon.
Test in all cases: inhibition of tumour cell growth, NCI panel, 48 h

Turning to `COc1ccc(CNc2c3ccccc3nc3ccccc23)cc1OC`, the GI50 is 2.39 µM in the test on SNB-75 CNS; 1.97 µM in the test on M14 melanoma; 2.13 µM in the test with NCI-H23 lung; 1.49 µM with RXF 393 renal; 2.37 µM with MDA-MB-231 breast; 3.3 µM in the test with SNB-19 CNS. Besides, the GI50 with SF-539 CNS was 2.82 µM; in the test with OVCAR-4 ovarian it was 2.39 µM; with OVCAR-5 ovarian, 2.56 µM; with SW-620 colon it was 1.69 µM. Besides, the TGI was determined as 11.3 µM in the test on SNB-75 CNS; 4.76 µM with M14 melanoma; 7.47 µM with NCI-H23 lung; 3.64 µM with RXF 393 renal; 7.32 µM with MDA-MB-231 breast; 17.2 µM in the test with SNB-19 CNS. Moreover, the TGI came out at 11.3 µM in the test on SF-539 CNS, 7.99 µM in the test on OVCAR-4 ovarian, 11 µM with OVCAR-5 ovarian and 10.1 µM with SW-620 colon.
`O=C(O)c1ccccc1-c1ccccc1C(=O)Nc1ccc2c(c1)Cc1cc(F)ccc1-2`: the TGI is above 100 µM with SNB-75 CNS; 40 µM in the test with M14 melanoma; 36.5 µM with NCI-H23 lung; above 100 µM in the test on RXF 393 renal; 83.2 µM in the test with MDA-MB-231 breast; above 100 µM in the test on SNB-19 CNS. For the same compound, the TGI with SF-539 CNS was above 100 µM; with OVCAR-4 ovarian it was above 100 µM; with OVCAR-5 ovarian it was 88.1 µM; in the test with SW-620 colon, above 100 µM.
Regarding `O=C(O)Cc1c(O)ccc2ccccc12`, the TGI with SNB-75 CNS, with M14 melanoma, in the test with NCI-H23 lung, with RXF 393 renal, with MDA-MB-231 breast and in the test with SNB-19 CNS was above 100 µM each time. Besides, the TGI in the test with SF-539 CNS, in the test on OVCAR-4 ovarian, with OVCAR-5 ovarian and in the test on SW-620 colon was above 100 µM throughout.
Take `CCCS(=O)(=O)Nc1ccc(Nc2c3ccccc3nc3ccccc23)c(OC)c1`: the TGI in the test with SNB-75 CNS amounted to 6.49 µM; with M14 melanoma, 17.8 µM; with NCI-H23 lung it was 8.26 µM; in the test on RXF 393 renal, 14.9 µM; in the test with MDA-MB-231 breast, 10.4 µM; in the test with SNB-19 CNS, 8.98 µM. Further, the TGI in the test on SF-539 CNS is 4.18 µM; in the test on OVCAR-4 ovarian, 32.4 µM; in the test with OVCAR-5 ovarian it was 23.6 µM; with SW-620 colon it was 21.3 µM.
Turning to `CC(=O)c1c(CBr)n([O-])c2ccccc2[n+]1=O`, the GI50 is 14.7 µM with SNB-75 CNS; 12.1 µM with M14 melanoma; 15.7 µM in the test on NCI-H23 lung; 15.3 µM in the test with RXF 393 renal; 12.2 µM with MDA-MB-231 breast; 18.8 µM in the test on SNB-19 CNS. Further, the GI50 in the test with SF-539 CNS was 11.2 µM; in the test with OVCAR-4 ovarian, 3.78 µM; with OVCAR-5 ovarian, 18.5 µM; in the test with SW-620 colon, 2.04 µM. For the same compound, the TGI in the test on SNB-75 CNS amounted to 29.6 µM; in the test on M14 melanoma, 25.6 µM; with NCI-H23 lung, 32.6 µM; in the test with RXF 393 renal, 32.6 µM; in the test with MDA-MB-231 breast, 25 µM; in the test on SNB-19 CNS, 40 µM. Further, the TGI in the test on SF-539 CNS is 24 µM; in the test with OVCAR-4 ovarian, 13.2 µM; in the test on OVCAR-5 ovarian, 44.4 µM; with SW-620 colon it was 4.15 µM.
As to `N#CC1(C2SCCS2=O)C2=C(C(=O)c3ccccc3C2=O)N2CCCC21` (centres undefined), the TGI in the test on SNB-75 CNS was 8.04 µM; in the test with M14 melanoma, 2.77 µM; with NCI-H23 lung, 3.51 µM; in the test on RXF 393 renal, 10.9 µM; in the test with MDA-MB-231 breast, 9.21 µM; in the test on SNB-19 CNS it was 16.8 µM. The TGI came to 9.11 µM with SF-539 CNS, 4.09 µM with OVCAR-4 ovarian, 9.39 µM in the test on OVCAR-5 ovarian and 6.41 µM with SW-620 colon.
Take `N#CC(C(=O)/C(=N/Nc1nc(=S)[nH]n1N)C(C#N)c1ccccc1)c1ccccc1` (centres undefined): the TGI in the test with SNB-75 CNS, with M14 melanoma, with NCI-H23 lung, with RXF 393 renal, with MDA-MB-231 breast and in the test with SNB-19 CNS was above 100 µM in each case. Further, the TGI in the test with SF-539 CNS, with OVCAR-4 ovarian, in the test on OVCAR-5 ovarian and in the test on SW-620 colon was above 100 µM in each case.
Turning to `CN(C)c1ccc2nc3ccc(=O)cc-3sc2c1`, the GI50 in the test with SNB-75 CNS was 11.7 µM; in the test on M14 melanoma, 0.408 µM; in the test with NCI-H23 lung it was 0.82 µM; in the test with RXF 393 renal, 2.92 µM; with MDA-MB-231 breast, 1.14 µM; with SNB-19 CNS it was 2.63 µM. The GI50 was 0.287 µM with SF-539 CNS, 1.41 µM in the test on OVCAR-4 ovarian, 4.68 µM in the test with OVCAR-5 ovarian and 1.36 µM in the test with SW-620 colon. Besides, the TGI in the test with SNB-75 CNS is above 100 µM; in the test on M14 melanoma, 10.8 µM; with NCI-H23 lung, above 100 µM; in the test on RXF 393 renal it was 36.9 µM; in the test with MDA-MB-231 breast it was above 45.4 µM; in the test with SNB-19 CNS, above 100 µM. Besides, the TGI was 36.5 µM in the test on OVCAR-4 ovarian, above 70.2 µM in the test with OVCAR-5 ovarian and above 100 µM in the test on SW-620 colon.
In the case of `CN1CCc2c(Sc3ccc(C(=O)NO)cc3)c3ccccc3n2C1`, the GI50 in the test with SNB-75 CNS was 0.674 µM; in the test on M14 melanoma it was 1.81 µM; with NCI-H23 lung, 1.7 µM; in the test on RXF 393 renal, 2.37 µM; with MDA-MB-231 breast, 1.75 µM; in the test on SNB-19 CNS, 2.12 µM. The GI50 in the test on SF-539 CNS is 1.42 µM; with OVCAR-4 ovarian, 1.92 µM; in the test on OVCAR-5 ovarian, 2.6 µM; in the test on SW-620 colon, 1.92 µM. The TGI in the test with SNB-75 CNS was 3.79 µM; in the test on M14 melanoma, 4.53 µM; with NCI-H23 lung it was 3.88 µM; in the test on RXF 393 renal it was 9.51 µM; with MDA-MB-231 breast, 4.19 µM; with SNB-19 CNS, 6.79 µM. For the same compound, the TGI with SF-539 CNS amounted to 3.11 µM; with OVCAR-4 ovarian, 8.6 µM; with OVCAR-5 ovarian it was 10.7 µM; in the test on SW-620 colon, 5.22 µM.
As for `Cc1sc2nc(NCCc3c[nH]c4ccc(Cl)cc34)[nH]c(=O)c2c1C`, the GI50 was 1.65 µM in the test with SNB-75 CNS; 2.4 µM with M14 melanoma; 2.39 µM with NCI-H23 lung; 1.79 µM in the test on RXF 393 renal; 2.59 µM in the test with MDA-MB-231 breast; 3.54 µM in the test with SNB-19 CNS. The GI50 is 3.37 µM in the test on SF-539 CNS, 3.27 µM in the test with OVCAR-4 ovarian, 2.97 µM in the test with OVCAR-5 ovarian and 2.64 µM with SW-620 colon. The TGI was 5.21 µM with SNB-75 CNS; 9.49 µM in the test with M14 melanoma; 6.22 µM in the test on NCI-H23 lung; 3.41 µM in the test on RXF 393 renal; 8.74 µM with MDA-MB-231 breast; 13.2 µM in the test on SNB-19 CNS. Besides, the TGI with SF-539 CNS came to 13.4 µM; in the test with OVCAR-4 ovarian it was 13.4 µM; in the test on OVCAR-5 ovarian, 11.7 µM; with SW-620 colon, 10.9 µM.
